Laboratory results as given in US20240261301A1, “COMPOSITION COMPRISING INOTODIOL FOR PREVENTION OR TREATMENT OF MUSCULAR DISEASE” (ANIMUSCURE INC., priority 2021, published 2024).

How the values were obtained:
PGC-1α = PGC-1α mRNA expression by qRT-PCR in C2C12 cells; format: cell-based, mouse; conditions: differentiating C2C12, qRT-PCR, normalized to 18s rRNA, vs control
Protocol: (§1) Cells were seeded into the cell culture medium (GM), and cultured for 24 hours. Thereafter, the differentiation medium (DM) was treated with DMSO and inotodiol (0.1, 0.5, 1.0, and 10 μM) at different concentrations, and differentiation was induced for 2 to 3 days.
The C2C12 cells whose differentiation was induced in Example 1 were lysed using an Easy-spin Total RNA Extraction kit, and chloroform was added thereto. Then, the C2C12 cells were centrifuged. After the supernatant was separated, the same volume of isopropanol was added and bound to the cells. After centrifugation, the cells were washed with 70% EtOH mixed with DEPC water, and the concentration of RNA was quantified by adding 20 to 50 μL of a DEPC solution. RNA was reverse-transcribed using a PrimeScript cDNA synthesis kit to synthesize cDNA. Then, the gene expression was analyzed by qRT-PCR in a real-time PCR system using SYBR Premix EX Taq. Fold changes in gene expression were normalized against the expression of ribosomal gene 18s rRNA.

high-fat diet mice = assay: Exercise capacity in high-fat diet mouse model (treadmill, grip test); format: in vivo; conditions: high-fat diet-fed mice
Protocol: When inotodiol was administered to high-fat diet mice, the effects on muscle strength and exercise performance ability were determined. After inotodiol was administered to a high-fat diet-fed mouse model, the exercise duration and movement distance were measured through a treadmill experiment. […] As a result of the grip test, it was also confirmed that the high-fat diet mouse model had lower muscle strength than the mean muscle strength.

PGC-1α promoter = assay: PGC-1α reporter (luciferase) assay; format: cell-based, mouse
Protocol: Immediately after cells were seeded at a density of 1×10^4 cells/well in a 96-well culture plate, the cells were transfected by treating the cells with PGC-1α (DNA) and a plasmid at a ratio of [150 ng/10 μL]+[0.3 μL/10 μL] per well. […] After 24 hours of drug treatment, the cells were lysed in 30 μL of a passive lysis buffer (Promega) per well, and the dissolved cell solution was transferred to a plate for luminometer reading. Then, an equal amount of luciferin, which is a substrate of luciferase, was subjected to an enzymatic reaction to determine the degree of luminescence. The measured values were standardized for each well and plate, and expressed as a relative ratio using the measured values in the wells treated with DMSO, which is a solvent of the compound, as the control. The expression level of luciferase in the PGC-1α reporter cell line depends on the stimulation received by a PGC-1α promoter. That is, if the compound is a PGC-1α expression inducer, it stimulates the PGC-1a promoter to increase the expression of luciferase, and if the compound is a PGC-1α expression inhibitor, luciferase expression decreases.

muscle stem cells = assay: Muscle stem cell proliferation (BrdU analysis) after CTX muscle damage; format: in vivo, mouse
Protocol: To induce muscle damage, CTX was injected into the mice to which inotodiol was administered once a day for 7 days. Then, it was determined through BrdU analysis whether or not the proliferation of muscle stem cells was enhanced (FIG. 10).

ATPSA, MTCO1, and NDUF88 = assay: Mitochondrial activity markers (T-OxPHOS immunoblotting) in C2C12 myoblasts; format: cell-based, mouse; conditions: inotodiol at each concentration
Protocol: as §1
To induce the differentiation of C2C12 myoblasts in the same manner as in Example 1 and check mitochondrial activity, the expression characteristics of a T-OxPHOS antibody mixed with ATPSA, MTCO1, and NDUF88 were confirmed through immunoblotting. For each of the proteins included in the T-OxPHOS antibody, ATPSA is a constituent protein of ATP synthase that contributes to the ATP synthesis in mitochondria, MTCO1 is associated with the oxidase activity of cytochrome-c, which is a component of the electron transport system in the inner membrane of mitochondria, and NDUF 88 encodes a subunit of NADH:ubiquinone oxidoreductase (Complex 1), which is the first enzyme complex in the mitochondrial electron transport system.

[1] = tested on: mouse model in which muscle damage is induced by CTX; conditions: CTX mice
Protocol: Ten 5-month-old C57BL/6 male mice were used as experimental animals.
However, each of the weights of the hindlimb muscle tissues, such as the tibialis anterior muscle (TA), extensor digitorum longus muscle (EDL), soleus muscle (Sol), and gastrocnemius muscle (Gas), of the experimental animals was measured.
Hematoxylin & eosin staining (H&E staining) was performed using the TA muscle isolated from the tissue of each of the experimental animals. Frozen sections fixed with 4% paraformaldehyde were stained with hematoxylin and stained with eosin for contrast staining, mounted, and observed under an optical microscope.
The relative mRNA expression levels were compared for each muscle type of Myh7 (MHCI), Myh2 (MHCIIa), Myh4 (MHCIIb), and Myh1 (MHCIIx).

C2C12 cells = assay: Myoblast differentiation of C2C12 cells (MHC immunostaining and immunoblot); format: cell-based, mouse
Protocol: The C2C12 cells were cultured in a general cell culture medium and a differentiation medium, respectively. DMEM supplemented with 15% fetal bovine serum was used as the normal cell culture medium (i.e., a growth medium (GM)), and DMEM supplemented with 2% horse serum was used as the differentiation medium (DM).
The C2C12 cells whose differentiation was induced in Example 1 were washed with 1× PBS, and then fixed with 3.7% paraformaldehyde at room temperature. Thereafter, a permeabilization buffer was added thereto, and reacted at room temperature. Unspecific antibody binding was inhibited by reacting with PBST (a blocking buffer) containing 3% BSA and PBS containing 0.1% Tween 20. A primary antibody against a myosin heavy chain (MHC) was diluted 1:500 in a blocking buffer, added, and reacted at room temperature. A secondary antibody diluted 1:5000 in a blocking buffer was added, and reacted at room temperature.
The C2C12 cells whose differentiation was induced in Example 1 were collected, lysed by adding a lysis buffer (20 mM Tris-HCl, pH 8.0, 150 mM NaCl, 1% Triton X, a proteinase inhibitor), and then the cell lysis sample was quantified. Thereafter, the same amount of protein was subjected to SDS-PAGE electrophoresis, and transferred to a PVDF membrane. […]

normal mice = assay: Long-term (2 months) inotodiol administration to normal mice; format: in vivo, mouse
Protocol: For normal mice in which the muscle damage or muscle atrophy was not induced, an experiment was conducted to determine whether there was an effect of increasing muscle mass and muscle strength when inotodiol was administered. For the mice to which inotodiol was administered for 2 months, an experiment was conducted to measure a change in muscle mass and muscle strength of hindlimb muscles after the administration of inotodiol (a grip test).

[2] = tested on: mouse model in which myoatrophy is induced by DEX; assay: Myotube atrophy in myoatrophy-induced (DEX) mouse model; format: in vivo; conditions: DEX (dexamethasone 20 mg/kg) model
Protocol: Experimental animals were grouped into 10 animals having a similar body weight, and dexamethasone was administered at a dose of 20 mg/kg to one group to induce […].
For the myoatrophy mouse model of Example 3, the effects of alleviating and recovering myotube atrophy were determined when inotodiol was administered.

muscle fibrosis = assay: Muscle fibrosis in CTX muscle damage mouse model; format: in vivo; conditions: then inotodiol
[3] = inotodiol once a day for 7 days, then CTX
[4] = 300 μg/kg oral, 21 days after CTX
[5] = 2 months administration, vs control

SMILES: CC(C)=CC[C@@H](O)[C@@H](C)[C@H]1CC[C@@]2(C)C3=C(CC[C@]12C)[C@@]1(C)CC[C@H](O)C(C)(C)C1CC3 (some centres unmarked) [inotodiol]
- mRNA expression for PGC-1α (PGC-1α): significantly increased compared to the control
- exercise capacity (exercise duration and movement distance, treadmill) (high-fat diet mice): recovered exercise capacity to the level of the normal control
- muscle strength (grip test) (high-fat diet mice): muscle strength was improved
- luciferase activity for PGC-1α (PGC-1α promoter; inotodiol 0.1, 0.5, 1.0 μM, 24 h, relative to DMSO): increased in an inotodiol concentration-dependent manner
- luciferase activity for PGC-1α compared with positive control (PGC-1α promoter; vs 0.5 mM AICAR positive control): higher than that of 0.5 mM AICAR
- expression of genes involved in muscle growth (muscle stem cells; CTX muscle damage): effect of enhancing the expression of genes involved in muscle growth was confirmed
- relative mRNA expression levels of genes involved in the cell cycle (muscle stem cells; CTX muscle damage): increased
- expression level of BrdU in muscle tissues (muscle stem cells; [3]): increased
- expression levels of Pax7 and Ki67 and expression ratio of Ki67 to Pax7 (muscle stem cells; [3]): increased
- expression level of mitochondrial proteins (ATPSA, MTCO1, NDUF88) (ATPSA, MTCO1, and NDUF88): increased in proportion to the concentration of inotodiol
- increase in muscle mass, extensor digitorum longus muscle (EDL), vs control [1, 4]: 18.9%
- increase in muscle mass, gastrocnemius muscle (Gas), vs control [1, 4]: 9.5%
- increase in muscle mass, soleus muscle (Sol), vs control [1, 4]: 5.2%
- increase in muscle mass, tibialis anterior muscle (TA), vs control [1, 4]: 16.0%
- expression of Myh2 (MHCIIa) ([1]; 21 days after muscle damage): tended to greatly increase
- relative mRNA expression levels of muscle fiber types Myh7, Myh2, Myh4, Myh1 ([1]; 21 days after muscle damage): no significant difference
- blood glucose ([1]; day 21 after induction of muscle damage, vs control): blood glucose-lowering effect was confirmed
- increase in grip strength vs control ([1]; day 21 after muscle damage, grip strength test): approximately 6.8%
- change in body weight ([1]; inotodiol 300 μg/kg oral, 21 days after CTX): no change in body weight was observed
- increase in muscle fiber cross-sectional area (CSA) of TA muscle vs control ([1]; laminin staining): 89.4%
- muscle regeneration (H&E staining of TA muscle) ([1]; vs control): significant muscle regeneration effect
- formation of multinucleated myotubes (C2C12 cells; C2C12, inotodiol 0.1, 0.5, 1.0, 10 μM, immunostaining on day 2 of differentiation): increased in a concentration-dependent manner
- expression level of MHC (differentiation marker) (C2C12 cells; C2C12, inotodiol at different concentrations, immunoblot, vs DMSO-treated control): increased in a concentration-dependent manner
- hindlimb muscle mass (normal mice; [5]): increased
- muscle strength (grip test) (normal mice; [5]): also increased
- weight of fat relative to weight gain (normal mice; long-term administration): increased relatively less
- weight-to-muscle ratio (normal mice; long-term administration): higher than that of the non-administered group
- expression levels of PGC-1α and mitochondrial-related genes in muscle (normal mice; long-term administration, vs control): increased compared to the control
- cross-sectional area of myotubes [2]: restored to the same level as that of the normal group
- size of muscles and muscle fibers [2]: increased
- area of the muscle tissue in which fibrosis progressed (muscle fibrosis): reduced
- muscle fibrosis in muscle tissue (muscle fibrosis): fibrosis was ameliorated
